From PubChem BioAssay AID1963977 (Molecular Pharmacology Branch, DTP, NCI, 2024)
Several values for one entry are separate records, joined by “and”; a condition that tells them apart may be missing. Identical values can stand only once. One block for each compound: values may come before it.

Test system: 624824-186-R-J3-PDC multicell spheroids, viability
Assay: Anticancer human tumor 624824-186-R-J3-PDC patient-derived colon adenocarcinoma cell line growth inhibition [PI3K]
Conditions: for viability, T/C: stronger effect = lower value
Description: Combinatorial screen of targeted agents with the PI3K inhibitors inavolisib, alpelisib, duvelisib, and copanlisib in multi-cell type tumor spheroids
A high-throughput screen of multi-cell type tumor spheroids was designed to identify active combinations of targeted small molecules and PI3K pathway inhibitors. Complex spheroids include a stromal component modeled by human endothelial cells (HUVEC) and fibroblasts modeled by human mesenchymal stem cells (MSCs). The concentration ranges selected for each drug and investigational agent were based upon clinically achievable concentrations if the clinical Cmax of the agent was known.
Compounds. The drugs and investigational agents: inavolisib (NSC800729), alpelisib (NSC765974), duvelisib (NSC772469), copanlisib (NSC816437), ipatasertib (NSC767898), afuresertib (NSC778305), talazoparib (NSC767125), sapanisertib (NSC764658), selumetinib (NSC741078), tovorafenib (DAY101, NSC766906), vemurafenib (NSC761431), ravoxertinib (NSC781343), sotorasib (NSC818433), MRTX1133 (NSC 836407), abemaciclib (NSC 768073), palbociclib (NSC758247), venetoclax (NSC 766270), SY5609 (NSC837396), enzalutamide (NSC755605), and darolutamide (NSC825331), were obtained from the National Cancer Institute (NCI) Developmental Therapeutics Program Chemical Repository. The FDA-approved anticancer drug set is available from the NCI Developmental Therapeutics Program. […] The stock solutions were prepared in dimethyl sulfoxide (DMSO, Sigma-Aldrich, St. Louis, MO, cat. D2650) at 800-fold the tested concentration and stored at -70 degrees C prior to their use. All drugs and investigational agents were tested over a range starting from a high concentration at or near the clinical Cmax and decreasing in half-log increments. If the clinical Cmax for an agent had not been determined, the highest concentration tested was 10 microM.
Cell Culture. All cells were maintained in an incubator at 37 degrees C and 5% CO2 with 95% humidity. The PDC lines were cultured according to standard operating procedures established by the NCI PDMR (https://pdmr.cancer.gov/sops/default.htm). All PDCs were thawed and cultured in Matrigel-coated flasks prepared with a working solution of 1X Ham's F-12 nutrient mix, without supplementation (Invitrogen, Waltham, MA, cat. 11765054), 100 U/mL penicillin-streptomycin (Invitrogen, cat. 15140122), and 2.5% Matrigel (Corning Inc., Corning, NY, cat. 354248) for the first three passages. The 354836-022-R-J1-PDC, 475296-252-R-J1-PDC, and 997726-040-R-J2-PDC lines were cultured in 6A media, which includes advanced DMEM/F-12 (Thermo Fisher Scientific, cat. 12634028), 10 mM HEPES (Thermo Fisher Scientific, cat. 15630080), 1X GlutaMAX supplement (Thermo Fisher Scientific, cat. 35050061), 0.1 mg/mL primocin (InvivoGen, San Diego, CA, cat. ant-pm-2), 10% defined fetal bovine serum, heat inactivated (HyClone Laboratories Inc., Logan, UT, cat. SH30070.03HI), 50% L-WRN conditioned media (ATCC, cat. CRL-3276), 1.25 mM N-Acetyl-L-cysteine (Sigma-Aldrich, cat. A9165), 10 mM nicotinamide (Sigma-Aldrich, cat. N0636), 1X B-27 supplement (Thermo Fisher Scientific, cat. 17504044), 1X N-2 supplement (Thermo Fisher Scientific, cat. 17502048), and 10 microM Y-27632 dihydrochloride (Tocris Bioscience, Bristol, United Kingdom, cat. 1254). The 624824-186-R-J2-PDC line was cultured in 6C/Colon 1B media, which includes all 6A media components plus 50 ng/mL human EGF recombinant protein (Thermo Fisher Scientific, cat. PHG0311). […]

[1] = curve of first compound, second compound 0.00316 µM
[2] = curve of first compound, second compound 0.01 µM
[3] = curve of first compound, second compound 0.0316 µM
[4] = curve of first compound, second compound 0.1 µM
[5] = curve of first compound, second compound 0.316 µM
[6] = curve of first compound, second compound 1 µM
[7] = second compound 0.00316 µM, first compound 0.0316 µM
[8] = second compound 0.00316 µM, first compound 0.1 µM
[9] = second compound 0.01 µM, first compound 0.0316 µM
[10] = second compound 0.01 µM, first compound 0.1 µM
[11] = second compound 0.0316 µM, first compound 0.0316 µM
[12] = second compound 0.0316 µM, first compound 0.1 µM
[13] = second compound 0.1 µM, first compound 0.0316 µM
[14] = second compound 0.1 µM, first compound 0.1 µM
[15] = second compound 0.316 µM, first compound 0.0316 µM
[16] = second compound 0.316 µM, first compound 0.1 µM
[17] = second compound 1 µM, first compound 0.0316 µM
[18] = second compound 1 µM, first compound 0.1 µM
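Note: spheroids exposed to agents for seven days before luminescence read.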
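Throughout, for viability, T/C: luminescent signal used as a stand-in for spheroid viability; percent viability relative to DMSO vehicle control wells taken as 100%.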

- IC50 (curve of compound): > 10 µM
SMILES: C#Cc1c(F)ccc2cc(O)cc(-c3ncc4c(N5CC6CCC(C5)N6)nc(OCC56CCCN5CC(F)C6)nc4c3F)c12 (configuration not stated)
- viability, T/C (compound 0.0316 µM): 120% and 98.2% and 102% (2×)
- viability, T/C (compound 0.1 µM): 105% and 102% (2×) and 101%
- viability, T/C (compound 0.316 µM): 101% [middle of 4 runs]
- viability, T/C (compound 1 µM): 101% [middle of 4 runs]
- viability, T/C (compound 3.16 µM): 108% [middle of 4 runs]
- viability, T/C (compound 10 µM): 107% [middle of 4 runs]

- IC50 (curve of compound): 8.4 µM and > 10 µM and 5.42 µM
SMILES: Cn1ncc(Cl)c1-c1cc(C(=O)NC(CN)Cc2cccc(F)c2)sc1Cl (configuration not stated)
- viability, T/C (compound 0.0316 µM): 104% [middle of 4 runs]
- viability, T/C (compound 0.1 µM): 101% (2×) and 112% and 104%
- viability, T/C (compound 0.316 µM): 95.1% [middle of 4 runs]
- viability, T/C (compound 1 µM): 76.3% [middle of 4 runs]
- viability, T/C (compound 3.16 µM): 67.9% [middle of 4 runs]

- IC50 [1]: > 0.1 µM
- IC50 [2]: > 0.1 µM
- IC50 [3]: > 0.1 µM
- IC50 [4]: > 0.1 µM
- IC50 [5]: > 0.1 µM
- IC50 [6]: > 0.1 µM
SMILES: CC(=O)c1c(C)c2cnc(Nc3ccc(N4CCNCC4)cn3)nc2n(C2CCCC2)c1=O + CC(Nc1ccc2c(c1)OCCn1cc(N3C(=O)OCC3C(F)F)nc1-2)C(N)=O
- viability, T/C (second compound 0.00316 µM, first compound 0.000316 µM): 100%
- viability, T/C (second compound 0.00316 µM, first compound 0.001 µM): 101%
- viability, T/C (second compound 0.00316 µM, first compound 0.00316 µM): 101%
- viability, T/C (second compound 0.00316 µM, first compound 0.01 µM): 105%
- viability, T/C [7]: 99%
- viability, T/C [8]: 110%
- viability, T/C (second compound 0.01 µM, first compound 0.000316 µM): 108%
- viability, T/C (second compound 0.01 µM, first compound 0.001 µM): 94.6%
- viability, T/C (second compound 0.01 µM, first compound 0.00316 µM): 106%
- viability, T/C (second compound 0.01 µM, first compound 0.01 µM): 102%
- viability, T/C [9]: 108%
- viability, T/C [10]: 106%
- viability, T/C (second compound 0.0316 µM, first compound 0.000316 µM): 101%
- viability, T/C (second compound 0.0316 µM, first compound 0.001 µM): 105%
- viability, T/C (second compound 0.0316 µM, first compound 0.00316 µM): 84.5%
- viability, T/C (second compound 0.0316 µM, first compound 0.01 µM): 105%
- viability, T/C [11]: 104%
- viability, T/C [12]: 97.3%
- viability, T/C (second compound 0.1 µM, first compound 0.000316 µM): 101%
- viability, T/C (second compound 0.1 µM, first compound 0.001 µM): 99%
- viability, T/C (second compound 0.1 µM, first compound 0.00316 µM): 95.7%
- viability, T/C (second compound 0.1 µM, first compound 0.01 µM): 107%
- viability, T/C [13]: 107%
- viability, T/C [14]: 102%
- viability, T/C (second compound 0.316 µM, first compound 0.000316 µM): 99.2%
- viability, T/C (second compound 0.316 µM, first compound 0.001 µM): 95.5%
- viability, T/C (second compound 0.316 µM, first compound 0.00316 µM): 106%
- viability, T/C (second compound 0.316 µM, first compound 0.01 µM): 99.8%
- viability, T/C [15]: 108%
- viability, T/C [16]: 104%
- viability, T/C (second compound 1 µM, first compound 0.000316 µM): 91.3%
- viability, T/C (second compound 1 µM, first compound 0.001 µM): 96%
- viability, T/C (second compound 1 µM, first compound 0.00316 µM): 97.9%
- viability, T/C (second compound 1 µM, first compound 0.01 µM): 94.8%
- viability, T/C [17]: 88.5%
- viability, T/C [18]: 81.3%

- IC50 [1]: > 10 µM
- IC50 [2]: > 10 µM
- IC50 [3]: > 10 µM
- IC50 [4]: > 10 µM
- IC50 [5]: > 10 µM
- IC50 [6]: > 10 µM
SMILES: CNC(=O)c1ccc(N2C(=S)N(c3ccc(C#N)c(C(F)(F)F)c3)C(=O)C2(C)C)cc1F + CC(Nc1ccc2c(c1)OCCn1cc(N3C(=O)OCC3C(F)F)nc1-2)C(N)=O
- viability, T/C [7]: 105%
- viability, T/C [8]: 104%
- viability, T/C (second compound 0.00316 µM, first compound 0.316 µM): 104%
- viability, T/C (second compound 0.00316 µM, first compound 1 µM): 87.4%
- viability, T/C (second compound 0.00316 µM, first compound 3.16 µM): 97%
- viability, T/C (second compound 0.00316 µM, first compound 10 µM): 106%
- viability, T/C [9]: 103%
- viability, T/C [10]: 101%
- viability, T/C (second compound 0.01 µM, first compound 0.316 µM): 108%
- viability, T/C (second compound 0.01 µM, first compound 1 µM): 97.1%
- viability, T/C (second compound 0.01 µM, first compound 3.16 µM): 96.1%
- viability, T/C (second compound 0.01 µM, first compound 10 µM): 99.1%
- viability, T/C [11]: 95.4%
- viability, T/C [12]: 104%
- viability, T/C (second compound 0.0316 µM, first compound 0.316 µM): 102%
- viability, T/C (second compound 0.0316 µM, first compound 1 µM): 97.3%
- viability, T/C (second compound 0.0316 µM, first compound 3.16 µM): 99.5%
- viability, T/C (second compound 0.0316 µM, first compound 10 µM): 99.6%
- viability, T/C [13]: 99.6%
- viability, T/C [14]: 101%
- viability, T/C (second compound 0.1 µM, first compound 0.316 µM): 103%
- viability, T/C (second compound 0.1 µM, first compound 1 µM): 101%
- viability, T/C (second compound 0.1 µM, first compound 3.16 µM): 109%
- viability, T/C (second compound 0.1 µM, first compound 10 µM): 80.3%
- viability, T/C [15]: 89.4%
- viability, T/C [16]: 90%
- viability, T/C (second compound 0.316 µM, first compound 0.316 µM): 94.2%
- viability, T/C (second compound 0.316 µM, first compound 1 µM): 97.8%
- viability, T/C (second compound 0.316 µM, first compound 3.16 µM): 92%
- viability, T/C (second compound 0.316 µM, first compound 10 µM): 82%
- viability, T/C [17]: 90.6%
- viability, T/C [18]: 89.2%
- viability, T/C (second compound 1 µM, first compound 0.316 µM): 95.8%
- viability, T/C (second compound 1 µM, first compound 1 µM): 90.5%
- viability, T/C (second compound 1 µM, first compound 3.16 µM): 88.9%
- viability, T/C (second compound 1 µM, first compound 10 µM): 76.4%
